# Experimental data reported in publication PMC9775322, “An Integrated Analysis of Mechanistic Insights into Biomolecular Interactions and Molecular Dynamics of Bio-Inspired Cu(II) and Zn(II) Complexes towards DNA/BSA/SARS-CoV-2 3CL^pro by Molecular Docking-Based Virtual Screening and FRET Detection” (Biomolecules, 2022).
# Test system: EB–DNA
# Test: Ethidium bromide displacement assay by fluorescence spectral titration
# Assay type: binding, calf
# Settings: for LWB Method KLB (Lineweaver-Burk binding constant) / Scatchard Analysis KSA (Scatchard association binding constant) / Scatchard Analysis n (number of binding sites) / n (number of binding sites), DNA binding, Stern–Volmer Method–II / KSV (Stern-Volmer binding constant), DNA binding, Method–I / Kass (association binding constant), DNA binding, Stern–Volmer Method–II: EB–DNA; for LWB Method KLB (Lineweaver-Burk binding constant) / Scatchard Analysis KSA (Scatchard association binding constant) / Scatchard Analysis n (number of binding sites) / n (number of binding sites), DNA binding, Stern–Volmer Method–II / Kq (bimolecular quenching rate constant), DNA binding, Stern–Volmer Method–I: pH 7.4; for KSV (Stern-Volmer binding constant), DNA binding, Method–I / Kass (association binding constant), DNA binding, Stern–Volmer Method–II: pH 7.4, 610 nm; for Kq (bimolecular quenching rate constant), DNA binding, Stern–Volmer Method–I: Kq=KSV/τ0, τ0 = 10^−8 S, 610 nm; for P (ratio of fluorescence quantum efficiency of DNA bound and free complex): intercept of F/F0 vs 1/[DNA]; for ΔGb°, DNA binding, Stern–Volmer Method–II: −RT ln Kass, T = 298 K
# Procedure: The DNA/BSA binding properties were acquired from the emission spectral titration with the supporting of the JASCO FP-6300 spectrofluorometer between the 200 and 800 nm regions. It is additional evidence for the complexes’ manner of DNA binding. While DNA (200 µM) was present or absent, we vigilantly monitored the intensity variations between 610 nm and 510 nm during the initial emission and excitation of EB [27]. Correspondingly, the emission titrations for BSA interaction with different concentrations between 2.5 μM and 25 μM for all samples were conducted in a Tris-HCl buffer solution (pH: 7.4) between the regions of 300 nm and 400 nm.
# 2.2.5. DNA/BSA binding assay by fluorescence titration
# The titration was executed by the JASCO FP-6300 spectrofluorometer in the range of 200 – […]
# DNA. To assess the relative DNA binding abilities of the test compound to CT-DNA, ethidium bromide (EB) was utilized as a reference. In the experiment, EB solution (20 µM) in 50 mM Tris –HCl /1 mM NaCl buffer solution (pH=7.2) was incubated with the DNA […]
# solution (240 µM) at saturated binding levels and stored in a dark place for two hours. The tested compounds (1 –240 µM) were titrated with pre-incubated EB-bound DNA.
# Additionally, from 610 nm to 510 nm, in the absence and presence of DNA (240 µM), the intensity changes for initial emission and excitation of EB were cautiously observed. As a conjugate planar molecule, EB's acquired fluorescence intensity is extremely low, but it […]
# concentration of the compounds (0-240 µM), the intensity of the EB-DNA system decreases owing to the quenching effect of DNA by the manner of static quenching. It further attributes the generation of ground state DNA – complex adduct owing the cationic metal complexes interacting with the negatively charged oxygen in phosphodiester of DNA and the contraction of DNA pushes a few EB molecules out of DNA base pairs [ 27].
# Fcorr = Fobs × e[(Aex× dex) + (Aem× dem)]/ 2 = Fobs × e(Aex + Aem)/ 2 (S12) Fcorr and F obs are represented as the IFE-corrected emission and observed (uncorrected) emission intensities, respectively. d ex and d em are denoted as the cuvette path lengths in the […]
# excitation and emission directions, respectively. Also, the alteration in absorbance (OD) at the excitation and fluorescence wavelengths, respectively, is sometimes referred to as A ex and […]
# F = 1+KSV [Q] = 1+ Kq τ0 (S13)
# Where [Q] is represented as the sample concentration (quencher), the emission intensities F 0 and F are those in the […] of the quencher, respectively.
# F ) = log Kass + nlog [Q] (S14)
# KEB[EB] = Kapp[compound] (S15)
# ∆F = (F 0–F), Equation (16) was utilized to examine the Lineweaver –Burk binding constant (KLB) from the linear regression plot of 1/(F0–F) vs 1/[Q]. […]
# γ =(F0–F)/F0, CF is denoted as the concentration of sample alone, the linear regression plot of (γ/CF) vs γ was employed to support equation (17), which was used to determine the values of KSA and n, respectively.
# 2.2.6. FRET calculation by Förster’s theory
# Calculating FRET (Fluorescence Resonance Energy Transfer) is a crucial approach in determining the critical distance (r) between donor (BSA) and acceptor (test compound) molecules, in which the binding affinity between the BSA-complex systems could be evalued according to Förster’s theory. The overlap of the emission spectrum of the donor (BSA) and the absorption spectrum of the acceptor (compound) describes that the acceptor (compound) group may get excited as a result of the excited donor's (BSA) energy being lost to the ground
SMILES,LWB Method KLB (Lineweaver-Burk binding constant),Scatchard Analysis KSA (Scatchard association binding constant),Scatchard Analysis n (number of binding sites),"n (number of binding sites), DNA binding, Stern–Volmer Method–II","KSV (Stern-Volmer binding constant), DNA binding, Method–I","Kass (association binding constant), DNA binding, Stern–Volmer Method–II","Kq (bimolecular quenching rate constant), DNA binding, Stern–Volmer Method–I",P (ratio of fluorescence quantum efficiency of DNA bound and free complex),"ΔGb°, DNA binding, Stern–Volmer Method–II"
"Oc1ccccc1N=Cc1ccc(N2CCOCC2)cc1 [(HL), 2-(4-morpholinobenzylideneamino)phenol]",6985 M⁻¹,23194 M⁻¹,1.096,0.976,11636 M⁻¹,9882 M⁻¹,1.1636e+12 M⁻¹ s⁻¹,0.090,–22.790 kJM^−1
"[Cu+2].[O-]c1ccccc1N=Cc1ccc(N2CCOCC2)cc1.[O-]c1ccccc1N=Cc1ccc(N2CCOCC2)cc1.c1cnc2c(c1)ccc1cccnc12 [(1b), [Cu^II(L)2(phen)]]",21654 M⁻¹,33302 M⁻¹,1.008,1.088,40303 M⁻¹,31817 M⁻¹,4.0303e+12 M⁻¹ s⁻¹,0.128,–26.942 kJM^−1
"[O-]c1ccccc1N=Cc1ccc(N2CCOCC2)cc1.[O-]c1ccccc1N=Cc1ccc(N2CCOCC2)cc1.[Zn+2].c1cnc2c(c1)ccc1cccnc12 [(2b), [Zn^II(L)2(phen)]]",18218 M⁻¹,32941 M⁻¹,0.909,1.083,20669 M⁻¹,19688 M⁻¹,2.0669e+12 M⁻¹ s⁻¹,0.124,–24.873 kJM^−1
